Read-outs that look alike come from different tables or passages of the source.
Assays:
cIAP2-BIR3 = cIAP2-BIR3 (Homo sapiens (Human), UniProt Q13489); assay: BIR binding assay (FRET competition), cIAP2 BIR3; conditions: for cIAP2 BIR3 vs BIR2 separation window: fold separation (FS) for cIAP2
cIAP1-BIR3 = cIAP1-BIR3 (Homo sapiens (Human), UniProt Q13490); assay: BIR binding assay (FRET competition), cIAP1 BIR3; conditions: for cIAP1 BIR3 vs BIR2 separation window: fold separation (FS) for cIAP1
Outline: (§1)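 Compounds tested as 15-point, 3-fold series displacing 200 nM AlexaFluor647-labelled SMAC peptide from His-tagged BIR domain (cIAP1-BIR3 50 nM; cIAP1-BIR2 and cIAP2-BIR2 325 nM; XIAP-BIR3 100 nM), pH 7.4, 60 min. Eu-W1024 (2 nM) added 30 min; emission ratio fitted for IC50.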

XIAP-BIR3 = XIAP-BIR3 (Homo sapiens (Human), UniProt P98170); assay: BIR binding assay (FRET competition), XIAP BIR3; conditions: for XIAP BIR3 vs BIR2 separation window: fold separation (FS) for XIAP
XIAP-BIR3, sequence (P98170 241-356): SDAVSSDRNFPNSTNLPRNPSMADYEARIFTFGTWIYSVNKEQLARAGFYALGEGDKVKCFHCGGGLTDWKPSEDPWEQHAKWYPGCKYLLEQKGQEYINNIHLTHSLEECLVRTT
Outline: as §1

[1] = test system: Jurkat HIV-luciferase clones; assay: Jurkat latency reversal assay; assay type: cell-based; conditions: Homo sapiens, 48 h; Jurkat latency reversal assay potency; read-out: Jurkat pEC50 (converted)
Outline: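 Compounds are titrated 3-fold over 14 points from 10 μM in duplicate at 0.5% DMSO. Clones C16, 115 and N6, grown with 500 nM EFV, are co-incubated for 48 h at 37° C. Virally driven luciferase is read by luminescence, and EC50 and maximal percent activation versus vehicle come from a four-parameter model.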

cIAP1-BIR2 = cIAP1-BIR2 (Homo sapiens (Human), UniProt Q13490); assay: BIR binding assay (FRET competition), cIAP1 BIR2
cIAP1-BIR2, sequence (Q13490 173-257): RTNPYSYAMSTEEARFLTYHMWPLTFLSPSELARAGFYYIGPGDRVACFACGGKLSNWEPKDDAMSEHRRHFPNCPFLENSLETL
Outline: as §1

XIAP-BIR2 = XIAP-BIR2 (Homo sapiens (Human), UniProt P98170); assay: BIR binding assay (FRET competition), XIAP BIR2
XIAP-BIR2, sequence (P98170 124-240): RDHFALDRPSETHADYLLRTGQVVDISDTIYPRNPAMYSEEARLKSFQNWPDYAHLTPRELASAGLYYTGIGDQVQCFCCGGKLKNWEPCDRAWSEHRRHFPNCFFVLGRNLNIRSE
Outline: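 Competitive TR-FRET used His-tagged XIAP-BIR2 (200 nM) and 200 nM AlexaFluor647-labelled AVPIAQKSE SMAC peptide in HEPES buffer pH 7.4 with CHAPS, glycerol and DTT, incubated 60 min before 30 min with 2 nM Eu-W1024. The 615/665 nm ratio from a 15-point, 3-fold series was fit with a four-parameter model for IC50/pIC50.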

cIAP2-BIR2 = cIAP2-BIR2 (Homo sapiens (Human), UniProt Q13489); assay: BIR binding assay (FRET competition), cIAP2 BIR2
cIAP2-BIR2, sequence (Q13489 158-242): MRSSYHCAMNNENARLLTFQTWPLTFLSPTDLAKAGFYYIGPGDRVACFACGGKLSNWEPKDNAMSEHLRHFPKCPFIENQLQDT
Outline: as §1

[2] = FRET competition binding, read-out: XIAP BIR2 (pIC50) (converted)

cIAP1-BIR3, sequence (Q13490 253-363): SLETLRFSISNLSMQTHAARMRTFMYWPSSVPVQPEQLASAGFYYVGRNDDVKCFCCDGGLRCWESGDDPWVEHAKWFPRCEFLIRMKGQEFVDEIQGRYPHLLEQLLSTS
cIAP2-BIR3, sequence (Q13489 238-349): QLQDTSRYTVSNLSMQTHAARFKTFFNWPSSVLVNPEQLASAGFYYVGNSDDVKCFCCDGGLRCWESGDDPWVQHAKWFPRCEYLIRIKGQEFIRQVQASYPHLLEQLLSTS

| Structure (SMILES) | IC50 (cIAP2-BIR3) [µM] | cIAP2 BIR3 vs BIR2 separation window (cIAP2-BIR3) | IC50 (cIAP1-BIR3) [µM] | cIAP1 BIR3 vs BIR2 separation window (cIAP1-BIR3) | IC50 (XIAP-BIR3) [µM] | XIAP BIR3 vs BIR2 separation window (XIAP-BIR3) | EC50 [1] [µM] | IC50 (cIAP1-BIR2) [µM] | IC50 (XIAP-BIR2; [2]) [µM] | IC50 (cIAP2-BIR2) [µM] | cIAP2 BIR3 (pIC50) (cIAP2-BIR3; FRET competition binding) | XIAP BIR2 (pIC50) (XIAP-BIR2; FRET competition binding) | cIAP1 BIR3 (pIC50) (cIAP1-BIR3; FRET competition binding) | IC50 (XIAP-BIR2) [µM] |
| --- | --- | --- | --- | --- | --- | --- | --- | --- | --- | --- | --- | --- | --- | --- |
| C[C@@H]1CN(CC(=O)N2CC(C)(C)c3[nH]c(=O)c(Cc4ccc(F)cc4)cc32)[C@@H](CN2CCC[C@H](NC(=O)Cc3cccc(CC(=O)N[C@H]4CCCN(C[C@H]5CN[C@H](C)CN5CC(=O)N5CC(C)(C)c6[nH]c(=O)c(Cc7ccc(F)cc7)cc65)C4)c3)C2)CN1 [Example 41, 2,2′-(1,3-phenylene)bis(N-((S)-1-(((2R,5R)-1-(2-(6-(4-fluorobenzyl)-3,3-dimethyl-5-oxo-2,3,4,5-tetrahydro-1H-pyrrolo[3,2-b]pyridin-1-yl)-2-oxoethyl)-5-methylpiperazin-2-yl)methyl)piperidin-3-yl)acetamide)] | 0.0316 to 0.501 | +++ (10,000>FS>1,000) | 0.0316 to 0.501 | +++ (10,000>FS>1,000) | 0.0316 to 0.501 | +++ (10,000>FS>1,000) | 0.316 to 3.31 | 3.16 to 10 | 10 to 51.3 | 3.16 to 10 | – | – | – | – |
| C[C@@H]1CN(CC(=O)N2CC(C)(C)c3[nH]c(=O)c(Cc4ccc(F)cc4)cc32)[C@@H](CN2CCC[C@H](NC(=O)Cc3ccc(CC(=O)N[C@H]4CCCN(C[C@H]5CN[C@H](C)CN5CC(=O)N5CC(C)(C)c6[nH]c(=O)c(Cc7ccc(F)cc7)cc65)C4)cc3)C2)CN1 [Example 42, 2,2′-(1,4-phenylene)bis(N-((S)-1-(((2R,5R)-1-(2-(6-(4-fluorobenzyl)-3,3-dimethyl-5-oxo-2,3,4,5-tetrahydro-1H-pyrrolo[3,2-b]pyridin-1-yl)-2-oxoethyl)-5-methylpiperazin-2-yl)methyl)piperidin-3-yl)acetamide)] | – | +++ (10,000>FS>1,000) | 0.0316 to 0.501 | ++ (1,000>FS>100) | 0.0316 to 0.501 | +++ (10,000>FS>1,000) | 0.316 to 3.31 | 3.16 to 10 | – | 3.16 to 10 | ++ (7.80>pIC50>=7.50) | + (4.29<pIC50<=5.00) | – | – |
| C[C@@H]1CN(CC(=O)N2CC(C)(C)c3[nH]c(=O)c(Cc4ccc(F)cc4)cc32)[C@@H](CN2CCC[C@@H](NC(=O)CCCCCCC(=O)N[C@@H]3CCCN(C[C@H]4CN[C@H](C)CN4CC(=O)N4CC(C)(C)c5[nH]c(=O)c(Cc6ccc(F)cc6)cc54)C3)C2)CN1 [Example 44, N^1,N^8-bis((R)-1-(((2R,5R)-1-(2-(6-(4-fluorobenzyl)-3,3-dimethyl-5-oxo-2,3,4,5-tetrahydro-1H-pyrrolo[3,2-b]pyridin-1-yl)-2-oxoethyl)-5-methylpiperazin-2-yl)methyl)piperidin-3-yl)octanediamide] | 0.0158 to 0.0316 | ++++ (FS>10,000) | – | +++ (10,000>FS>1,000) | 0.0158 to 0.0316 | ++++ (FS>10,000) | 0.316 to 3.31 | 10 to 51.3 | – | 10 to 51.3 | – | + (4.29<pIC50<=5.00) | + (7.50>pIC50>=6.30) | – |
| C[C@@H]1CN(CC(=O)N2CC(C)(C)c3[nH]c(=O)c(Cc4ccc(F)cc4)cc32)[C@@H](CN2CCC[C@@H](NC(=O)Cc3ccc(CC(=O)N[C@@H]4CCCN(C[C@H]5CN[C@H](C)CN5CC(=O)N5CC(C)(C)c6[nH]c(=O)c(Cc7ccc(F)cc7)cc65)C4)cc3)C2)CN1 [Example 48, 2,2′-(1,4-phenylene)bis(N-((R)-1-(((2R,5R)-1-(2-(6-(4-fluorobenzyl)-3,3-dimethyl-5-oxo-2,3,4,5-tetrahydro-1H-pyrrolo[3,2-b]pyridin-1-yl)-2-oxoethyl)-5-methylpiperazin-2-yl)methyl)piperidin-3-yl)acetamide)] | 0.0158 to 0.0316 | ++++ (FS>10,000) | 0.0158 to 0.0316 | +++ (10,000>FS>1,000) | 0.0158 to 0.0316 | ++++ (FS>10,000) | 0.316 to 3.31 | 10 to 51.3 | 10 to 51.3 | 10 to 51.3 | – | – | – | – |
| C[C@@H]1CN(CC(=O)N2CC(C)(C)c3[nH]c(=O)c(Cc4ccc(F)cc4)cc32)[C@@H](CN2CCO[C@H](COCC#CC#CCOC[C@@H]3CN(C[C@H]4CN[C@H](C)CN4CC(=O)N4CC(C)(C)c5[nH]c(=O)c(Cc6ccc(F)cc6)cc54)CCO3)C2)CN1 [Example 63, 1,1′-(2,2′-((3R,3′R,6R,6′R)-(((2S,2'S)-((hexa-2,4-diyne-1,6-diylbis(oxy))bis(methylene))bis(morpholine-2,4-diyl))bis(methylene))bis(3-methylpiperazine-6,1-diyl))bis(acetyl))bis(6-(4-fluorobenzyl)-3,3-dimethyl-1,2,3,4-tetrahydro-5H-pyrrolo[3,2-b]pyridin-5-one)] | 0.0158 to 0.0316 | – | 0.00794 to 0.0158 | – | 0.0158 to 0.0316 | – | 0.0126 to 0.0631 | 1 to 3.16 | 10 to 51.3 | 3.16 to 10 | – | – | – | – |
| C[C@@H]1CN(CC(=O)N2CC(C)(C)c3[nH]c(=O)c(Cc4ccc(F)cc4)cc32)[C@@H](CN2CCO[C@H](COc3ccccc3Oc3ccccc3OC[C@@H]3CN(C[C@H]4CN[C@H](C)CN4CC(=O)N4CC(C)(C)c5[nH]c(=O)c(Cc6ccc(F)cc6)cc54)CCO3)C2)CN1 [Example 68, 1,1′-(2,2′-((3R,3′R,6R,6′R)-(((2S,2'S)-(((oxybis(2,1-phenylene))bis(oxy))bis(methylene))bis(morpholine-2,4-diyl))bis(methylene))bis(3-methylpiperazine-6,1-diyl))bis(acetyl))bis(6-(4-fluorobenzyl)-3,3-dimethyl-1,2,3,4-tetrahydro-5H-pyrrolo[3,2-b]pyridin-5-one)] | 0.00794 to 0.0158 | +++ (10,000>FS>1,000) | 0.0158 to 0.0316 | +++ (10,000>FS>1,000) | 0.00794 to 0.0158 | +++ (10,000>FS>1,000) | 0.00049 to 0.0126 | 3.16 to 10 | 10 to 51.3 | 1 to 3.16 | – | – | – | – |
| C[C@@H]1CN(CC(=O)N2CC(C)(C)c3[nH]c(=O)c(Cc4ccc(F)cc4)cc32)[C@@H](CN2CCO[C@H](COc3cccc(OC[C@@H]4CN(C[C@H]5CN[C@H](C)CN5CC(=O)N5CC(C)(C)c6[nH]c(=O)c(Cc7ccc(F)cc7)cc65)CCO4)c3)C2)CN1 [Example 69, 1,1′-(2,2′-((3R,3′R,6R,6′R)-(((2S,2'S)-((1,3-phenylenebis(oxy))bis(methylene))bis(morpholine-2,4-diyl))bis(methylene))bis(3-methylpiperazine-6,1-diyl))bis(acetyl))bis(6-(4-fluorobenzyl)-3,3-dimethyl-1,2,3,4-tetrahydro-5H-pyrrolo[3,2-b]pyridin-5-one)] | 0.00794 to 0.0158 | – | 0.00794 to 0.0158 | – | 0.0158 to 0.0316 | – | 0.00049 to 0.0126 | 1 to 3.16 | – | 1 to 3.16 | – | – | – | 10 to 51.3 |
